US7297714B2, “Inhibitors of cathepsin S” (IRM LLC, priority 2003, dated 2007)

Assays:
Format in all cases: biochemical
Cathepsin K = target: T1, Cathepsin K (Homo sapiens, UniProt P43235); assay: Cathepsin K inhibition assay, selectivity for cathepsin S over cathepsin K; conditions: ratio of cathepsin K inhibition constant to cathepsin S inhibition constant
T1 sequence (P43235 115-329): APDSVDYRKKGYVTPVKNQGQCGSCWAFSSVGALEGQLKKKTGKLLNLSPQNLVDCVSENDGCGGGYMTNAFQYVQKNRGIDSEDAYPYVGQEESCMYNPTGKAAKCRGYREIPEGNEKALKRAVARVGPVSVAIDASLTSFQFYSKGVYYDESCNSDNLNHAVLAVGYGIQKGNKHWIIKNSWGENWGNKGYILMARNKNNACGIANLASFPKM
Protocol: (§1) The optimal substrate for cathepsin K, acetyl-lysine-histidine-proline-lysine-amino carbamoyl coumarin, was identified from screening a combinatorial library of fluorogenic peptide substrates (Harris, J. L., B. J. Backes, et al., Proc Natl Acad Sci USA 2000, 97(14), 7754-9). Kinetic measurements are performed in a total reaction volume of 30 μl in 384-well microtiter plates. Cathepsin K, at a final concentration of 3.5 nM (active site), is incubated with the compounds at twelve varying concentrations in a buffer containing 100 mM NaAc (pH5.5), 1 mM EDTA, 100 mM NaCl, 0.01% Brij-35 for 20 minutes at room temperature. Control reactions in the absence of inhibitor are performed in replicates of 24. The reactions are initiated by adding the substrate, acetyl-lysine-histidine-proline-lysine-amino carbamoyl coumarin, to a final concentration of 40 μM. The rate of substrate hydrolysis is measured by monitoring the increase in fluorescence at an excitation wavelength of 380 nm and an emission wavelength of 450 nm that results from cleavage of the aniline bond in the substrate by the enzyme. The apparent inhibition constants for the compounds are determined from the enzyme progress curves (Kuzmic, P., K. C. Elrod, et al., Anal Biochem 2000, 286(1), 45-50) and are then used to calculate the inhibition constants for competitive inhibitors.
(§2) Selectivity for cathepsin S in the presence of cathepsin isozymes was determined by the ratio of the cathepsin isozyme inhibition constant of a compound of the present invention to the cathepsin S inhibition constant of the same compound. Preferred compounds of the present invention selective for cathepsin S have ratios of greater than 10. More preferred compounds of the present invention selective for cathepsin S have ratios of greater than 100. Most preferred compounds of the present invention selective for cathepsin S have ratios of greater than 1000.

Cathepsin L = Cathepsin L (Homo sapiens, UniProt P07711); assay: Cathepsin L inhibition assay, selectivity for cathepsin S over cathepsin L; conditions: ratio of cathepsin L inhibition constant to cathepsin S inhibition constant
Chain of Cathepsin L (P07711 114-333, species assumed): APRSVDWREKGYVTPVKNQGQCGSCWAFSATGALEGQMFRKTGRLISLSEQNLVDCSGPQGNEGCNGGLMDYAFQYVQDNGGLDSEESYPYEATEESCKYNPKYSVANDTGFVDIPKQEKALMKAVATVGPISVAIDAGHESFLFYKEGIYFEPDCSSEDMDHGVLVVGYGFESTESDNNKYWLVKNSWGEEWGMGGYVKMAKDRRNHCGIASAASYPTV
Protocol: as §1, with “for cathepsin L, acetyl-histidine-lysine-phenylalanine-lysine-amino carbamoyl coumarin,” for “for cathepsin K, acetyl-lysine-histidine-proline-lysine-amino carbamoyl coumarin,”, “Backes, et al.; Proc Natl” for “Backes, et al., Proc Natl”, “plates. Cathepsin L, at a” for “plates. Cathepsin K, at a”, “concentration of 0.1 nM (active” for “concentration of 3.5 nM (active”, “the substrate, acetyl-histidine-lysine-phenylalanine-lysine-amino carbamoyl coumarin,” for “the substrate, acetyl-lysine-histidine-proline-lysine-amino carbamoyl coumarin,”, “concentration of 20 μM. The” for “concentration of 40 μM. The”
as §2

Cathepsin B = Cathepsin B (Homo sapiens, UniProt P07858); assay: Cathepsin B inhibition assay, selectivity for cathepsin S over cathepsin B; conditions: ratio of cathepsin B inhibition constant to cathepsin S inhibition constant
Protocol: as §1, with “B, acetyl-histidine-proline-valine-lysine-amino” for “K, acetyl-lysine-histidine-proline-lysine-amino”, “US A” for “USA”, “B,” for “K,”, “1.5” for “3.5”, “acetyl-histidine-proline-valine-lysine-amino” for “acetyl-lysine-histidine-proline-lysine-amino”, “10” for “40”
as §2

Caspase 8 = Caspase 8 (Homo sapiens, UniProt Q14790); assay: Inhibition Assay for Caspase 8; conditions: Caspase-8 inhibition constant; pH 7.4; read-out: Ki Cas-8
Chain of Caspase 8 (Q14790 217-374 limits assumed, species assumed): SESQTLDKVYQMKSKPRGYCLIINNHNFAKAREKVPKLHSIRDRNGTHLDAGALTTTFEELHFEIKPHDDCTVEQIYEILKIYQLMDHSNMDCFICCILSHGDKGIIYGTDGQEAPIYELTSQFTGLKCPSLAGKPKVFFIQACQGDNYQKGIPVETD
Chain of Caspase 8 (Q14790 385-479 limits assumed, species assumed): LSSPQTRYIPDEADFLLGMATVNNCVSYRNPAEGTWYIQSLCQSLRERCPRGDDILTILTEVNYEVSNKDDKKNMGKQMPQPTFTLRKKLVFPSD
Protocol: The widely used substrate for caspase 8, […]-amino carbamoyl coumarin, was used. Kinetic measurements are performed in a total reaction volume of 30 μl in 384-well microtiter plates. Caspase 8, at a final concentration of 0.2-1 nM (active site), is incubated with the compounds at twelve varying concentrations in a buffer containing 20 mM Hepes (pH 7.4), 1 mM EDTA, 100 mM NaCl, 0.1% CHAPS, 10% sucrose, 10 mM DTT for 20 minutes at room temperature. Control reactions in the absence of inhibitor are performed in replicates of 12. The reactions are initiated by adding the substrate to a final concentration of 2 μM. The rate of substrate hydrolysis is measured by monitoring the increase in fluorescence at an excitation wavelength of 380 nm and an emission wavelength of 450 nm that results from cleavage of the aniline bond in the substrate by the enzyme. The apparent inhibition constants for the compounds are determined from the enzyme progress curves (Kuzmic, Elrod et al. 2000) and are then used to calculate the inhibition constants for competitive inhibitors (Km=25.7 μM).

Compound	Selectivity for Cat. S over Cat. K (Cathepsin K)	Selectivity for Cat. S over Cat. L (Cathepsin L)	Selectivity for Cat. S over Cat. B (Cathepsin B)	Ki (Caspase 8)
O=C1C[C@H](NC(=O)[C@H](CC2CCCC2)NC(=O)c2ccc(-c3cccc(F)c3)o2)C(O)O1 (stereo partly drawn) [Example 1, (3S)-(3-Cyclopentyl-(2S)-{[5-(3-fluoro-phenyl)-furan-2-carbonyl]-amino}-propionylamino)-4-oxo-butyric acid]	+ (+, >10)	++ (++, >100)	+++ (+++, >1000)	> 1 µM
O=C1C[C@H](NC(=O)[C@H](CC2CCCC2)NC(=O)N2CCOCC2)C(O)O1 (stereo partly drawn) [Example 2, (3S)-{3-Cyclopentyl-(2S)-[(morpholine-4-carbonyl)-amino]-propionylamino}-4-oxo-butyric acid]	++ (++, >100)	++ (++, >100)	+++ (+++, >1000)	> 10 µM
O=C1C[C@H](NC(=O)[C@H](CC2CCCCC2)OC(=O)N2CCOCC2)C(O)O1 (stereo partly drawn) [Example 3, (3S)-{3-cyclohexyl-(2S)-(morpholine-4-carbonyloxy)-propionylamino}-4-oxo-butyric acid]	+ (+, >10)	+ (+, >10)	+++ (+++, >1000)	> 10 µM
O=C[C@H](CC(=O)O)NC(=O)[C@@H](CC(=O)N1CCOCC1)CC1CCCC1 [Example 4, (3S)-[(2R)-Cyclopentylmethyl-4-morpholin-4-yl-4-oxo-butyrylamino]-4-oxo-butyric acid]	+ (+, >10)	++ (++, >100)	+++ (+++, >1000)	> 10 µM
O=C1C[C@H](NC(=O)O[C@@H](CC2CCCC2)Cn2cnc3cc(Cl)c(Cl)cc32)C(O)O1 (stereo partly drawn) [Example 5, (3S)-[(1S)-Cyclopentylmethyl-2-(5,6-dichloro-benzoimidazol-1-yl)-ethoxycarbonylamino]-4-oxo-butyric acid]	+ (+, >10)	+ (+, >10)	+++ (+++, >1000)	> 10 µM
O=C1C[C@H](NC(=O)[C@@H](CC(=O)N2CCOCC2)CC2CCCCC2)C(O)O1 (stereo partly drawn) [Example 6, (3S)-{(2R)-Cyclohexylmethyl-4-morpholin-4-yl-4-oxo-butyrylamino}-4-oxo-butyric acid]	++ (++, >100)	++ (++, >100)	+++ (+++, >1000)	> 10 µM
O=C1C[C@H](NC(=O)[C@H](CC2CCCCC2)NS(=O)(=O)c2cccc(OC(F)(F)F)c2)C(O)O1 (stereo partly drawn) [Example 7, (3S)-[3-Cyclohexyl-(2S)-(3-trifluoromethoxy-benzenesulfonylamino)-propionylamino]-4-oxo-butyric acid]	++ (++, >100)	++ (++, >100)	+++ (+++, >1000)	> 10 µM
O=C1C[C@H](NC(=O)[C@H](CC2CCCC2)NS(=O)(=O)c2cccc(OC(F)(F)F)c2)C(O)O1 (stereo partly drawn) [Example 8, (3S)-[3-Cyclopentyl-(2S)-(3-trifluoromethoxy-benzenesulfonylamino)-propionylamino]-4-oxo-butyric acid]	++ (++, >100)	++ (++, >100)	+++ (+++, >1000)	> 10 µM
CC(C)(C)C[C@H](OC(=O)N[C@H]1CC(=O)OC1O)C(=O)N1CCOCC1 (stereo partly drawn) [Example 9, (3S)-[3,3-Dimethyl-(1S)-(morpholine-4-carbonyl)-butoxycarbonylamino]-4-oxo-butyric acid]	–	++ (++, >100)	++ (++, >100)	> 100 µM
O=C1C[C@H](NC(=O)O[C@@H](CC2CCCCC2)C(=O)N2CCOCC2)C(O)O1 (stereo partly drawn) [Example 10, (3S)-[2-cyclohexyl-(1S)-(morpholin-4-carbonyl)-ethoxycarbonylamino]-4-oxo-butyric acid]	++ (++, >100)	+++ (+++, >1000)	+++ (+++, >1000)	> 100 µM
